This note sets out measurements from patent publication US20250129122A1, “PEPTIDE, AND CELL FUSION AGENT AND PHARMACEUTICAL COMPOSITION FOR CANCER THERAPY CONTAINING SAID PEPTIDE” (priority 2021, published 2025).

Assay [1] relates to A549 cells (human alveolar epithelial adenocarcinoma cells). Put plainly: In vivo anticancer effect on A549 tumor transplanted in nude mice. The conditions noted are these: A549 subcutaneous, 18.75 mg/kg or 37.5 mg/kg intravenously two times/week during 5 weeks, autopsy 35 days after implantation. More on the design: species or system mouse. As for the experimental part: In this example, the anticancer effect of peptide 16 on A549 cells (human alveolar epithelial adenocarcinoma cells) was examined in vivo.
CAnN.Cg-Foxn1nu/CrlCrlj nude mice were divided into groups of 6 animals each. A549 cells were suspended in PBS at a concentration of 1×10^8 cells/mL and 0.1 mL thereof were transplanted subcutaneously to the right ventral part thereof. The peptide 16 was administered intravenously from the tail vein at a dose of 18.75 mg/kg or 37.5 mg/kg (peptide 16 group-1, or peptide 16 group-2) on two times/week during 5 weeks after tumor transplantation. Control group was administered PBS only.
Autopsy was performed 35 days after tumor implantation, and the tumor was removed. FIGS. 13A (×100) and B (×400) are the photographs of tumor masses of A549 cells treated with peptide 16, and FIGS. 13C (×100) and D (×400) are the controls.

In assay [2] the test system is RFL cells. Put plainly: Apoptosis induction, Caspase-3/7 activity (IncuCyte S3 live cell analysis). The conditions noted are these: 0.06 μg/mL, scanned every hour for 3 days, untreated control did not increase. Format: cell-based, rat. As for the experimental part: (§1) In this Example, the apoptosis ability of peptide 16 was examined using the […] and RM4 cells. An activity of Caspase-3/7 which are indications of apoptosis, was measured using IncuCyte S3 live cell analysis system (Essen BioScience).
(§2) The activity of Caspase-3/7 activity is measured using an inert non-fluorescent (DEVD) substrate that can penetrate the cell membrane. An activated Caspase-3/7 cleaves the substrate, and thereby a DNA-bound green fluorescent label is released. The activity of Caspase-3/7 is measured by the intensity of green fluorescence.
(§3) RFL cells or RM4 cells were seeded on 96-well plates and 0.06 μg/mL of peptide 16 was added thereto. Caspase-3/7 Green Reagent (Unit size: 20 ul, 5 mM/vial) was diluted 500-fold with Ham's F-12K and added thereto.
(§4) They were measured using the IncuCyte S3 live cell analysis system, by continuously scanning every hour for 3 days with an objective lens of magnification of 10 times and 4 fields of view. As a control, RFL cells or RM-4 cells which were not treated with peptide 16, were used.

In assay [3] the test system is HVJ virus (Sendai virus). The assay is described as follows: Virus envelope fusion, electron micrograph. The source says:
In this example, peptide 16 was applied to the HVJ virus (Sendai virus), and its ability to fuse with the virus was examined.

Assay [4] relates to RM4 cells. The assay is described as follows: Apoptosis induction, Caspase-3/7 activity (IncuCyte S3 live cell analysis). In kind it is cell-based. Conditions: 0.06 μg/mL, scanned every hour for 3 days, untreated control did not increase. How it is done:
as §1, §2, §3, §4

Regarding “CH3-Pro-Ile-Val-Ser-Thr-Gln-Thr-Ala-Leu-Ala-miniPEG-D-Lys-D-Lys-D-Lys-NH2 [peptide 16]”, in assay [1], the “antitumor effect, HE-stained excised tumor” value is “the inside of the tumor is necrotic”. For the same substance, the “activity of Caspase-3/7” value in assay [2] is “the activity increased rapidly between 10 and 20 hours”; in assay [4] it was “the activity increased rapidly between 10 and 20 hours”. Moreover, the “fusion of the virus envelope” value in assay [3] was “Fusion of the envelope of the HVJ virus was observed”.
